Reference: patent US8722727B2, “Antifungal agents” (Seynix, Inc., priority 2008, dated 2014)

What follows are molecules tested against T1, glucan synthase (GS) (Candida albicans, UniProt O13428) (assay: Glucan synthase inhibition (polymerization assay, 96-well)). Conditions: glucan synthase prepared from Candida albicans MY1055; 60 min incubation at 22° C.; read-out: Candida Albicans GS IC50 (ng/mL) (converted).
T1 construct: Extraction of GS activity from membranes was performed at a protein concentration of 5 mg/mL in extraction buffer; endogenous in cells; host or cells: Candida albicans MY1055 (membrane fraction, detergent extraction, product entrapment)
T1 sequence (O13428 1-1897): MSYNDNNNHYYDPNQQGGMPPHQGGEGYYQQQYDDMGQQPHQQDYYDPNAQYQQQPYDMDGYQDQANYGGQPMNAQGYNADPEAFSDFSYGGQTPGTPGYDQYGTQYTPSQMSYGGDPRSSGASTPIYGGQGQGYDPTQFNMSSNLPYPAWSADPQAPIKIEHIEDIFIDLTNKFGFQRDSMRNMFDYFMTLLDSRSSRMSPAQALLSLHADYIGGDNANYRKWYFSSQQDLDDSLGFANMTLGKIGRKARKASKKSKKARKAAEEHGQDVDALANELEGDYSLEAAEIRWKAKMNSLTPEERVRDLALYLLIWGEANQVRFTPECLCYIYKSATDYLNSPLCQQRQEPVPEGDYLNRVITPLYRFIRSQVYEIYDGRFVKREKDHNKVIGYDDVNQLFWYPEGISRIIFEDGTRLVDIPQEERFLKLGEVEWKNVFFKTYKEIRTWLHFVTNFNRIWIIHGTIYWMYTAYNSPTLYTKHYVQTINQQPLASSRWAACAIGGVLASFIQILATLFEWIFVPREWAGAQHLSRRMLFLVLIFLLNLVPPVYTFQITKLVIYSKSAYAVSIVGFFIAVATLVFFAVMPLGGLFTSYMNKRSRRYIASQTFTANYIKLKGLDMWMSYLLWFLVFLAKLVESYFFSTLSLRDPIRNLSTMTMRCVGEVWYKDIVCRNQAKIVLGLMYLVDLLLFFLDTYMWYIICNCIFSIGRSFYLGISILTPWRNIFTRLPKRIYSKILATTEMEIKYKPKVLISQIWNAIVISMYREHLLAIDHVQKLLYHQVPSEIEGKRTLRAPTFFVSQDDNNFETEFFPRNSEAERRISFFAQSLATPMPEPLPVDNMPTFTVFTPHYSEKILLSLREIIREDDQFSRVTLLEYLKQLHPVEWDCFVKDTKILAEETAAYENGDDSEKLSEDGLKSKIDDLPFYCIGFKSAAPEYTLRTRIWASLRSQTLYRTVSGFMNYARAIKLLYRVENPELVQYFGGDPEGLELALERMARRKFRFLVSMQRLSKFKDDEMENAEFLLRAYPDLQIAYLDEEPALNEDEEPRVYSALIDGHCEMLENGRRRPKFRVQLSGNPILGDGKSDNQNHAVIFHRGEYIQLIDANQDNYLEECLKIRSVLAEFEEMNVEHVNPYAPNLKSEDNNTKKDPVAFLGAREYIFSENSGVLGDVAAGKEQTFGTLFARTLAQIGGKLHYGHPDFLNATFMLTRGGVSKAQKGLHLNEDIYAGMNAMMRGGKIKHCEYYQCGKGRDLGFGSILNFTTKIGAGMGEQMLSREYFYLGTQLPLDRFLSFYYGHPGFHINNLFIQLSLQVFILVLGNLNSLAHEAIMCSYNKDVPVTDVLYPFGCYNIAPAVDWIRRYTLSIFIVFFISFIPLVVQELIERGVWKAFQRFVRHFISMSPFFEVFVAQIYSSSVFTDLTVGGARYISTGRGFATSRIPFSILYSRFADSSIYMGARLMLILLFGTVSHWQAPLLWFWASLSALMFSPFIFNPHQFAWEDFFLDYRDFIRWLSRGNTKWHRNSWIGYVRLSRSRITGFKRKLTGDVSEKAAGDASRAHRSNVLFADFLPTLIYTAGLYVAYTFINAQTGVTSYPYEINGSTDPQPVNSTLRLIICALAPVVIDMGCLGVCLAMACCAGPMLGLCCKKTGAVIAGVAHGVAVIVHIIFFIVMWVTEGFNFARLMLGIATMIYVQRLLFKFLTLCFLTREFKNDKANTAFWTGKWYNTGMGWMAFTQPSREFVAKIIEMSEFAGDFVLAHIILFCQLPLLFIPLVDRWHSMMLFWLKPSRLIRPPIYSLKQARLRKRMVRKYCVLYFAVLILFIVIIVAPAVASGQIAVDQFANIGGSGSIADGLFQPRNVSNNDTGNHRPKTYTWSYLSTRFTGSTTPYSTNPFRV
T1 sequence (O42825 1-195 partner limits assumed): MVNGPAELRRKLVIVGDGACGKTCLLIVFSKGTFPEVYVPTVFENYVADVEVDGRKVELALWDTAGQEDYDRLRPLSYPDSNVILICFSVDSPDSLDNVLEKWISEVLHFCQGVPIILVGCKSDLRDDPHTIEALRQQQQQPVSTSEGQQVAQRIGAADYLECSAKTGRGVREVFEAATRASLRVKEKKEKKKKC
Assay type: biochemical
How it was run: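 Partially purified membrane glucan synthase from C. albicans MY1055, 60 min at 22° C with 0.5 mM 3H-UDPG, 25 μM GTP-γ-S, pH 7.5 HEPES, 25 mM KF. TCA-precipitated glucan filtered and scintillation counted; IC50 (ng/mL) from sigmoidal fit of duplicates over 3-fold dilutions.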
Work on `CC(C)[C@@H](C)[C@@]1(C)CC[C@]2(C)[C@H]3CC[C@@H]4[C@@]5(COC[C@@]4(C)[C@@H](OCC(C)(N)CCO)[C@H](n4nnc(N)n4)C5)C3=CC[C@@]2(C)[C@@H]1C(=O)O` (stereo partly drawn) [Example 122, (1S,4aR,6aS,7R,8R,10aR,10bR,12aR,14R,15R)-15-(2-amino-4-hydroxy-2-methylbutoxy)-14-(5-amino-2H-tetrazol-2-yl)-8-[(1R)-1,2-dimethylpropyl]-1,6,6a,7,8,9,10,10a,10b,11,12,12a-dodecahydro-1,6a,8,10a-tetramethyl-4H-1,4a-propano-2H-phenanthro[1,2-c]pyran-7-carboxylic acid] yielded an IC50 of 16.7 nM.
`CCN(C)C(C)(CCOC)CO[C@H]1[C@H](n2nnc(N)n2)C[C@@]23COC[C@]1(C)[C@@H]2CC[C@H]1C3=CC[C@@]2(C)[C@H](C(=O)O)[C@@](C)([C@H](C)C(C)C)CC[C@]12C` (stereo partly drawn) [Example 127, (1S,4aR,6aS,7R,8R,10aR,10bR,12aR,14R,15R)-14-(5-amino-2H-tetrazol-2-yl)-8-[(1R)-1,2-dimethylpropyl]-15-[2-(ethylmethylamino)-4-methoxy-2-methylbutoxy]-1,6,6a,7,8,9,10,10a,10b,11,12,12a-dodecahydro-1,6a,8,10a-tetramethyl-4H-1,4a-propano-2H-phenanthro[1,2-c]pyran-7-carboxylic acid] showed an IC50 of 30.9 nM.
`CNC(C)(CCF)CO[C@H]1[C@H](n2nnc(N)n2)C[C@@]23COC[C@]1(C)[C@@H]2CC[C@H]1C3=CC[C@@]2(C)[C@H](C(=O)O)[C@@](C)([C@H](C)C(C)C)CC[C@]12C` (stereo partly drawn) [Example 129, (1S,4aR,6aS,7R,8R,10aR,10bR,12aR,14R,15R)-14-(5-amino-2H-tetrazol-2-yl)-8-[(1R)-1,2-dimethylpropyl]-15-[4-fluoro-2-methyl-2-(methylamino)butoxy]-1,6,6a,7,8,9,10,10a,10b,11,12,12a-dodecahydro-1,6a,8,10a-tetramethyl-4H-1,4a-propano-2H-phenanthro[1,2-c]pyran-7-carboxylic acid] gave an IC50 of 7.43 nM.
